# Measurements reported in PMC12222847 (Scientific Reports, 2025).
# Target: T1, CK1.2 (Trypanosoma brucei, UniProt Q57W25)
# T1 sequence (Q57W25 1-332): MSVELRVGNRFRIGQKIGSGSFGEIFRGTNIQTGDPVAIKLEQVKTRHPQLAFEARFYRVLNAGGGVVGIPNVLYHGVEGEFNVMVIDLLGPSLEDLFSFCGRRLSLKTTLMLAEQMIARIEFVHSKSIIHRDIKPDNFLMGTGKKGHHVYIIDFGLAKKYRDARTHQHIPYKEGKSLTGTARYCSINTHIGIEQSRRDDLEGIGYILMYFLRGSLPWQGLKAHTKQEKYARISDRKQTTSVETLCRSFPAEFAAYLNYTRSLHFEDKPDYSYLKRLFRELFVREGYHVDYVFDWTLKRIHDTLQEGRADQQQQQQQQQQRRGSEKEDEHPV
# Type: biochemical
row,SMILES,IC50
1,Nc1nccc(-c2c(-c3ccc(F)cc3)ncn2C2CCCCC2)n1 [PF-670462],29.1 nM
2,NC(=O)c1ccc(-c2nc(-c3ccc4c(c3)OCO4)c(-c3ccccn3)[nH]2)cc1 [SB-431542],49.2 nM
